Experimental data: patent publication US12577270B2, “2′,3′-diacetyluridine substituted with acetoacetyl at the 5′ position” (PHARMA CINQ, LLC, priority 2020, dated 2026)
Where two headings read alike, the source gives them in different places.

Experiments:
[1] = Plasma uridine and [uridine+uracil] in mice after oral administration of uridine prodrugs (Example 4); assay type: in vivo, Female CD-1 mice; settings: for systemic uridine delivery after oral administration: oral gavage, dose equimolar to 600 mg/Kg UTA, result in words
Description: Chemical(s): HPMC (Hydroxypropyl)methyl cellulose (SIGMA-Aldrich: cat #H3785, CAS 9004-65-3); uridine triacetate (2′,3′,5′-tri-O-acetyluridine): UTA, Item Code D000156, Lot #Q000001095, made by Almac Sciences; 2′,3′,5′-tri-O-(acetoacetyl)uridine: Tri-AcAcU; 5′-O-(acetoacetyl)-2′,3′-di-O-acetyluridine: AcAcDAU; 2′,3′-di-O-acetyl-5′-O-heptanoyluridine: DA-HU. (Note: the AcAcDAU used in this experiment was the mixture of 9.4 parts 5′-O-(acetoacetyl)-2′,3′-di-O-acetyluridine and 1 part a combination of 5′-O-(acetoacetyl)-2′-O-acetyl-3′-O-formyluridine and 5′-O-(acetoacetyl)-3′-O-acetyl-2′-O-formyluridine from Example 1 above.)
(§1) Vehicle: Aqueous HPMC was used as a vehicle for oral administration of the uridine derivatives.
(§2) Dosing Formulation: UTA and other uridine derivatives were prepared in 0.75% HPMC. UTA and other uridine derivatives were added to 0.75% HPMC and homogenized to eliminate clumps. The suspension were made up to the desired volume and concentration and sonicated to disaggregate any small leftover clumps into fine particles. Suspensions were stored at 4° C. until use. Suspensions were used within 24 hrs of preparation.
Dosing: Mice received a dose of 600 mg/Kg UTA gavaged at 0.02 ml/g body weight. Other uridine derivatives were dosed in the same manner at concentrations containing amounts of uridine equimolar to UTA.
Animals: Female CD-1 mice.
The general initial layout for the experiment involved gavaging groups of 6 mice with uridine derivatives and obtaining blood samples at several times points thereafter (3 mice were bled for 2 time points (15 and 60 minutes), and another 3 mice were bled for the other 2 time points (30 and 120 minutes). Each experiment included an HPMC (vehicle only) time point with 3 mice to establish a baseline for blood uridine.
Blood samples were collected into plasma separation tubes, which were centrifuged immediately after blood collection, and aliquots of plasma were frozen for subsequent processing. Plasma was later deproteinated, and uridine and uracil were quantified by liquid chromatography using UV absorbance detection and mass spectrometry.
Delivery of uridine into the bloodstream was assessed by monitoring plasma uridine and the sum of uridine and uracil [uridine+uracil], as uracil is the first product in enzymatic degradation of uridine. Mice convert administered uridine to uracil more rapidly and extensively than do humans.

[2] = system: mice receiving 60 mg/kg/day 3-nitropropionic acid (progressive lethal mitochondrial energy failure); experiment: Protection against mortality caused by 3-nitropropionic acid (Example 6, 11 day study); assay type: in vivo, Female CD-1 mice; settings: for Median Survival / % Survival: 3-NP 60 mg/kg/day ip, UTA 1000 mg/kg b.i.d. or AcAcDAU 1113.5 mg/kg b.i.d. oral; for survival time versus vehicle alone: UTA 1000 mg/kg or AcAcDAU 1113.5 mg/kg b.i.d.; for % Survival: end of 11 day study
Method: 5′-O-acetoacetyl-2′,3′-di-O-acetyluridine (AcAcDAU) delivers both uridine and acetoacetate (and beta-hydroxybutyrate [BHB] derived from acetoacetate) into the circulation after oral administration. A study was designed to compare relative efficacy of UTA versus AcAcDAU in a model of progressive lethal mitochondrial energy failure. Mitochondrial dysfunction was produced by daily administration of 3-nitropropionic acid (3-NP; 60 mg/kg/day) by intraperitoneal injection. 3-NP is an irreversible inhibitor of succinate dehydrogenase (Complex II of the mitochondrial electron transport chain). Daily dosing with 3-NP results in progressive diminution of mitochondrial capacity to maintain ATP production, eventually resulting in mortality from both neurodegeneration and cardiomyopathy.
Female CD-1 mice at approximately 16 weeks of age were divided into weight-matched groups of 10 mice each. All mice received daily intraperitoneal injections of 3-NP (60 mg/kg) in a volume of 0.01 ml per gram of body weight.
In addition to daily injections of 3-NP, the three groups of mice received 1) Vehicle; 2) UTA; or 3) AcAcDAU. This experiment used the AcAcDAU from Example 2. These treatments were administered orally, by gavage, in a volume of 0.02 ml per gram of body weight.
• 1. Vehicle Control (0.75% HPMC; hydroxypropylmethylcellulose) • 2. Uridine triacetate 1000 mg/kg BID (suspended in 0.75% HPMC) • 3. AcAcDAU 1113.5 mg/kg (molar equivalent to 1000 mg/kg UTA) BID (dissolved in 0.75% HPMC)
(§3) Body weights were recorded each day to adjust drug doses as mice lost weight during repeated treatment with 3-NP.
Survival times (median survival; the time point at which 50% of animals in a group had died) and percent survival at the end of the 11 day study were used to quantify and compare protective effects of the test agents.

[3] = system: mice receiving 60 mg/kg/day 3-nitropropionic acid (progressive mitochondrial failure); experiment: Protection against mortality due to 3-nitropropionic acid, higher doses (Example 7, 10 day study); assay type: in vivo; settings: for survival time versus vehicle alone: UTA 2000 mg/kg or AcAcDAU 2227 mg/kg b.i.d.; for % Survival: end of 10 day study, 3-NP 60 mg/kg/day ip, UTA 2000 mg/kg b.i.d. or AcAcDAU 2227 mg/kg b.i.d. oral
Method: In this example the effect of higher doses of UTA (2000 mg/kg/dose) versus equimolar AcAcDAU (2227 mg/kg/dose) were compared in the same model system.
• 1. Vehicle Control (0.75% HPMC; hydroxypropylmethylcellulose) • 2. Uridine triacetate 2000 mg/kg BID (suspended in 0.75% HPMC)
AcAcDAU 2227 mg/kg (molar equivalent to 2000 mg/kg UTA) BID (dissolved in 0.75% HPMC). This experiment used the AcAcDAU from Example 2. The treatment schedule was as follows:
as §3
Percent survival of mice in each group of 10 mice at the end of the 10 day study were used to quantify and compare protective effects of the test agents.

[4] = Plasma uridine, uracil and beta-hydroxybutyrate in mice after oral administration of AcAcDAU (Example 5); assay type: in vivo, Female CD-1 mice; settings: 2350 mg/Kg oral, 15-120 min, result in words
Description: An important feature of 5′-O-(acetoacetyl)-2′,3′-di-O-acetyluridine (AcAcDAU) is that it yields simultaneous or concurrent delivery of both uridine and acetoacetate via a single drug molecule. Acetoacetate in plasma is in equilibrium with beta-hydroxybutyrate (BHB) mirroring free NADH/NAD+ ratios in hepatic mitochondria, and heavily favoring BHB as the more prevalent of the two ketone bodies under normal physiological conditions. Moreover, BHB is stable after blood sampling and processing, whereas acetoacetate is labile. Therefore, plasma BHB was measured along with plasma uridine in mice receiving oral AcAcDAU.
Chemical(s): HPMC (Hydroxypropyl) methyl cellulose (SIGMA-Aldrich: cat #H3785, CAS 9004-65-3), 5′-O-(acetoacetyl)-2′,3′-di-O-acetyluridine (AcAcDAU; lot #432168B). This experiment used the AcAcDAU from Example 2.
as §1
as §2, with “HPMC. AcAcDAU was” for “HPMC. UTA and other uridine derivatives were”, “The suspensions” for “The suspension”
Dosing: Mice received a dose of 2350 mg/Kg AcAcDAU gavaged at 0.02 ml/g body weight. Control mice received only the 0.75% HPMC vehicle
General Experimental Design: The general layout for the experiment involved gavaging mice with AcAcDAU and obtaining blood samples at several time points thereafter (see table below for details). The experiment included a group with 2 mice gavaged with HPMC only and bled at 60 and 120 min for determination of baseline plasma uridine.
Mice received 0.02 ml/g bodyweight of a suspension (0.75% hydroxypropylmethylcellulose in water) with a concentration of AcAcDAU of 117 mg/ml for a dose of 2,350 mg/Kg body weight. […]

[5] = humans; cited from earlier work
[6] = mice; cited from earlier work

Row | systemic uridine delivery after oral administration [1] | SMILES | Median Survival [2] | survival time versus vehicle alone ([2]; result in words) | % Survival [2] | survival time versus vehicle alone ([3]; result in words) | % Survival [3] | also measured
1 | relatively poor | CCCCCCC(=O)OC[C@H]1O[C@@H](n2ccc(=O)[nH]c2=O)[C@H](OC(C)=O)[C@@H]1OC(C)=O [DA-HU, 2′,3′-di-O-acetyl-5′-O-heptanoyluridine, reference compound] |  |  |  |  |  | 
2 | delivered little uridine | CC(=O)CC(=O)OC[C@H]1O[C@@H](n2ccc(=O)[nH]c2=O)[C@H](O)[C@@H]1O [AcAcU, 5′-O-(acetoacetyl)uridine] |  |  |  |  |  | 
3 |  | CC(=O)OC[C@H]1O[C@@H](n2ccc(=O)[nH]c2=O)[C@H](OC(C)=O)[C@@H]1OC(C)=O [UTA, 2′,3′,5′-tri-O-acetyluridine, reference compound] | 7 days | improved survival time | 30% (5/10) | improved survival time | 70% (7/10) | 
4 | relatively poor | CC(=O)CC(=O)OC[C@H]1O[C@@H](n2ccc(=O)[nH]c2=O)[C@H](OC(=O)CC(C)=O)[C@@H]1OC(=O)CC(C)=O [Tri-AcAcU, 2′,3′,5′-tri-O-(acetoacetyl)uridine, reference compound] |  |  |  |  |  | 
5 |  | CC(=O)CC(=O)OC[C@H]1O[C@@H](n2ccc(=O)[nH]c2=O)[C@H](OC(C)=O)[C@@H]1OC(C)=O [AcAcDAU, 5′-O-(acetoacetyl)-2′,3′-di-O-acetyluridine] | >11 days | improved survival time | 50% (2/10) | improved survival time | 100% (10/10) | delivery of uridine and uridine catabolites ([uridine+uracil]) into the circulation compared with equimolar uridine triacetate ([1]; oral, equimolar to 600 mg/Kg UTA, AcAcDAU was the 9.4:1 mixture from Example 1, result in words): more; median survival time compared with UTA ([2]; AcAcDAU 1113.5 mg/kg b.i.d. vs equimolar UTA, result in words): longer; survival at the 10 day time point compared with equimolar UTA ([3]; AcAcDAU 2227 mg/kg b.i.d. vs UTA 2000 mg/kg b.i.d., result in words): better survival; Plasma beta-hydroxybutyrate after oral administration [4]: elevated; Plasma uracil after oral administration [4]: elevated; Plasma uridine after oral administration [4]: elevated
6 |  | O=c1ccn([C@@H]2O[C@H](CO)[C@@H](O)[C@H]2O)c(=O)[nH]1 [uridine] |  |  |  |  |  | bioavailability (oral delivery) [5]: approximately 7%; bioavailability (oral delivery) [6]: approximately 7%
